According to ChEMBL document CHEMBL5365483, “Structure-Based Drug Design of Novel Triaminotriazine Derivatives as Orally Bioavailable IDH2R140Q Inhibitors with High Selectivity and Reduced hERG Inhibitory Activity for the Treatment of Acute Myeloid Leukemia” (J Med Chem, 2023):

Assays:
[1] = in vitro; details: mouse, liver microsomes
[2] = in vitro; details: human, liver microsomes
[3] = in vitro; details: human, liver microsomes; remark: listed apart in the source
[4] = in vitro; details: mouse, liver microsomes; remark: listed apart in the source
[5] = in vivo; details: BALB/c, mouse, po, 25 mg/kg
[6] = in vivo; details: BALB/c, mouse, iv, 5 mg/kg
[7] = in vivo; details: BALB/c, mouse, iv, 5 mg/kg; remark: listed apart in the source
[8] = in vivo; details: BALB/c, mouse, iv, 5 mg/kg; remark: listed apart in the source
[9] = in vivo; details: BALB/c, mouse, iv, 5 mg/kg; remark: listed apart in the source
[10] = in vivo; details: BALB/c, mouse, iv, 5 mg/kg; remark: listed apart in the source
[11] = in vivo; details: BALB/c, mouse, po, 25 mg/kg; remark: listed apart in the source
[12] = in vivo; details: BALB/c, mouse, po, 25 mg/kg; remark: listed apart in the source
[13] = in vivo; details: BALB/c, mouse, po, 25 mg/kg; remark: listed apart in the source
[14] = in vivo; details: BALB/c, mouse, po, 25 mg/kg; remark: listed apart in the source

Work on `O=C(O)Cc1ccccc1Nc1c(Cl)cccc1Cl` [DICLOFENAC] yielded a half-life at 1 h, 1 µM [1] of 0.402 h, a CLint scaled at 1 h, 1 µM [2] of 302 mL/min/kg and a half-life at 1 h, 1 µM [3] of 0.0883 h. The CLint scaled at 1 h, 1 µM [4] was 226 mL/min/kg.

Molecule `CC(C)(O)CNc1nc(Nc2ccnc(C(F)(F)F)c2)nc(-c2cccc(C(F)(F)F)n2)n1` [ENASIDENIB] has a bioavailability at 72 h [5] of 125%, a half-life at 24 h [6] of 2.71 h and a clearance at 24 h [7] of 5.99 mL/min/kg. For the same molecule, the AUC(0-inf) at 24 h [8] was 14000 ng·h/mL, the Cmax at 24 h [9] was 2840 ng/mL and the MRT at 24 h [10] was 4.9 h. The MRT at 72 h [11] was 7.45 h, the half-life at 72 h [12] was 6.98 h and the AUC(0-inf) at 72 h [13] was 87600 ng·h/mL. It also gave a Cmax at 72 h [14] of 6390 ng/mL.

For `CCOc1ccc(NC(C)=O)cc1` [PHENACETIN], the half-life at 1 h, 1 µM [1] was 0.0567 h, the CLint scaled at 1 h, 1 µM [2] was 23.6 mL/min/kg and the half-life at 1 h, 1 µM [3] was 1.13 h. The CLint scaled at 1 h, 1 µM [4] was 1590 mL/min/kg.
